Earlier results as cited in US20090246262A1, “EASILY APPLIED FIELD DRESSING FOR WOUNDS” (Valor Medical, Inc., priority 2008, published 2009).

Legend:
[1] = in vivo
[2] = upon contact with moist tissues

| time to polymerize (remains as a monomer) [2] | SMILES | histotoxicity [1] |
| --- | --- | --- |
| – | C=C(C#N)C(=O)OC [Eastman 910] | histotoxic |
| 30 to 55 s | C=C(C#N)C(=O)OC [methyl homolog, methyl cyanoacrylate] | histoxicity severely limited its clinical usefulness |
| – | C=C(C#N)C(=O)OCC [ethyl] | histotoxic |
